Key:
[1] = test system: C. elegans; assay: C. elegans differential gene expression (RNA-Seq); format: in vivo; settings: vs. vehicle control
Protocol: […]. Both young (adult day 3) and aged (adult day 10) worms were collected from the same population of worms tested in lifespan assay.
Technical Background and Data Visualization Guide: Differential gene expression was performed with EdgeR using […] likelihood ratio tests based on fitting linear models. The likelihood ratios were used to determine the p-values which were subsequently corrected for using the BH false discovery rate (fdr) method. Eventually, differential expressed genes (DEG) were defined as genes with fdr-corrected p-value of 0.05 or lower, as well as a change in expression of at least 2-fold in a given between-group comparison. In this study, the following comparisons groups were used: Table 36: Comparison groups for differential gene expression
[…]. All DEG shown have P values under the cutoff of 0.05; […]. Gene function annotations collected from WormBase and human orthologs are predicted by DRSC Integrative Ortholog Prediction Tool (DIOPT, www.flyrna.org). […] […]. All DEG shown have P values under the cutoff of 0.05; […]. Gene function annotations collected from WormBase and human orthologs are predicted by DRSC Integrative Ortholog Prediction Tool (DIOPT, www.flyrna.org).

[2] = target: T1, Wild type (wt) α-Synuclein (Homo sapiens, UniProt P37840); assay: Dynamic Light Scattering (DLS), induced aggregation; format: biochemical
T1 construct: purchased rPeptide, Watkinsville, Georgia S-1001-2

[3] = test system: CREB-binding protein (CBP) colocalization with mHTT; assay: Co-localization of CREB-binding protein (CBP) with mHTT; format: in vivo, R6/2 mice; settings: treated animals of the R6/2 study versus untreated TG mice; p = 0.02
From the text: Staining - Goat anti-Rabbit IgG (H+L) Alexa Fluor 647 (1:500, ThermoFisher Invitrogen) was used as a secondary antibody for binding to CBP antibody. DAPI (Sigma-Aldrich) was used to identify the nuclei. Goat anti-Mouse IgG (H+L), Alexa Fluor 488 (1:500, A-11034, ThermoFisher Invitrogen) was used as a secondary antibody for binding to EM48 antibody. Mouse anti-human-mHTT (EM48, 1:500, Sigma-Aldrich), was used to stain huntingtin. Rabbit anti-CBP (1:100, Sigma-Aldrich) was used a primary antibody to stain CBP.
The blocking buffer was freshly prepared and consisted of PBS (Sigma-Aldrich) with 5% normal goat serum (NGS), 0.2% BSA, 0.2% lysine and 0.2% glycine. […] On day six, samples were washed and then incubated with DAPI containing mounting medium Fluoroshield (Sigma-Aldrich), in order to counterstain the nuclei and preserve the fluorescence. […]
CBP colocalization with mHTT and quantitative assessment of the images were measured (Lee, J. et al., Acta Neuropathol. 2017 Nov;[…]:729-748; Steffan, J.S. et al., Nature. 2001 Oct 18;413(6857):739-743; Nucifora, F.C. et al., Science. 2001 Mar 23;291(5512):2423-2428). In brief, regions of interest (colocalized areas) in multi-channel images from two or three of the overlapping fluorescence dyes were selected using the Plugin CoLoc2 of FIJI. The colocalization score of identified areas was calculated. […]

CCc1c(C)[nH]c2ccc(C(=O)NCCN(CC)CC)cc12 [Compound 4, N-(2-(diethylamino)ethyl)-3-ethyl-2-methyl-1H-indole-5-carboxamide]
cyp-35A1 Log2(fold change) ([1]; Day 3, 200 nM): 3.04
cyp-35B1 Log2(fold change) ([1]; Day 3, 200 nM): 3.41
cyp-35B2 Log2(fold change) ([1]; Day 3, 200 nM): 9.18
cyp-35B3 Log2(fold change) ([1]; Day 3, 200 nM): 12.96
irg-4 Log2(fold change) ([1]; Day 3, 200 nM): 1.37
irg-5 Log2(fold change) ([1]; Day 3, 200 nM): 2.09
pgp-13 Log2(fold change) ([1]; Day 3, 200 nM): 3.55
C18H9.6 Log2(fold change) ([1]; Day 3, 2 µM): 1.16
C29F3.7 Log2(fold change) ([1]; Day 3, 2 µM): 1.25
D1086.3 Log2(fold change) ([1]; Day 3, 2 µM): 1.19
F15B9.6 Log2(fold change) ([1]; Day 3, 2 µM): 1.57
F55G11.2 Log2(fold change) ([1]; Day 3, 2 µM): 2.80
T19B10.2 Log2(fold change) ([1]; Day 3, 2 µM): 1.79
cpr-4 Log2(fold change) ([1]; Day 3, 2 µM): 1.35
cyp-33A1 Log2(fold change) ([1]; Day 3, 2 µM): 1.27
cyp-35A1 Log2(fold change) ([1]; Day 3, 2 µM): 8.58
cyp-35B1 Log2(fold change) ([1]; Day 3, 2 µM): 5.05
cyp-35B2 Log2(fold change) ([1]; Day 3, 2 µM): 11.26
cyp-35B3 Log2(fold change) ([1]; Day 3, 2 µM): 15.81
cyp-35C1 Log2(fold change) ([1]; Day 3, 2 µM): 2.17
far-3 Log2(fold change) ([1]; Day 3, 2 µM): 1.66
gst-5 Log2(fold change) ([1]; Day 3, 2 µM): 2.71
irg-4 Log2(fold change) ([1]; Day 3, 2 µM): 3.88
irg-5 Log2(fold change) ([1]; Day 3, 2 µM): 5.88
pgp-13 Log2(fold change) ([1]; Day 3, 2 µM): 5.44
ugt-44 Log2(fold change) ([1]; Day 3, 2 µM): 1.45
cyp-35A1 Log2(fold change) ([1]; Day 10, 200 nM): 4.25
cyp-35B1 Log2(fold change) ([1]; Day 10, 200 nM): 1.62
cyp-35B2 Log2(fold change) ([1]; Day 10, 200 nM): 5.71
cyp-35B3 Log2(fold change) ([1]; Day 10, 200 nM): 11.65
irg-4 Log2(fold change) ([1]; Day 10, 200 nM): 1.22
irg-5 Log2(fold change) ([1]; Day 10, 200 nM): 2.12
pgp-13 Log2(fold change) ([1]; Day 10, 200 nM): 4.36
F55G11.2 Log2(fold change) ([1]; Day 10, 2 µM): 1.70
K08D8.6 Log2(fold change) ([1]; Day 10, 2 µM): 1.45
cpr-4 Log2(fold change) ([1]; Day 10, 2 µM): 1.80
cyp-35A1 Log2(fold change) ([1]; Day 10, 2 µM): 6.81
cyp-35B1 Log2(fold change) ([1]; Day 10, 2 µM): 2.06
cyp-35B2 Log2(fold change) ([1]; Day 10, 2 µM): 6.61
cyp-35B3 Log2(fold change) ([1]; Day 10, 2 µM): 13.40
cyp-35C1 Log2(fold change) ([1]; Day 10, 2 µM): 1.60
gst-5 Log2(fold change) ([1]; Day 10, 2 µM): 2.42
irg-4 Log2(fold change) ([1]; Day 10, 2 µM): 2.95
irg-5 Log2(fold change) ([1]; Day 10, 2 µM): 4.26
pgp-13 Log2(fold change) ([1]; Day 10, 2 µM): 6.36
oligomerization of wt α-Synuclein ([2]; Compound 4 solved in methanol): does not oligomerize
% Volume, Peak 1 ([2]; by volume, 70 µM equimolar Compound 4 solved in methanol): 99,4%

Cc1[nH]c2ccc(C(=O)NCCN(C(C)C)C(C)C)cc2c1C [Compound 22]
reduction of CBP colocalization with mHTT [3]: 4 fold
